US12319913B2, “5-halouracil-modified microRNAs and their use in the treatment of cancer” (The Research Foundation for The State University of New York, priority 2018, dated 2025)

Key:
[1] = test system: MDA-MB-231 breast cancer cells; assay: Cell cycle analysis, MDA-MB-231 breast cancer cells; format: cell-based, human; settings: compared to native exogenous microRNAs or NC
Procedure: Cell cycle analysis: Twenty-four hours after transfection, cells were harvested and resuspended at 0.5 to 1×10^6 cells/mL in modified Krishan's buffer supplemented with 0.02 mg/mL RNase H and 0.05 mg/mL propidium iodide. Stained cells were detected by flow cytometry and results were analyzed with Modfit LT™ software. The experiments for cell cycle analysis were performed at least three times.

[2] = test system: MDA-MB-231 triple negative breast cancer cells; assay: MTT cell proliferation, MDA-MB-231, with or without oligofectamine; format: cell-based, human
Procedure: For transfections, 1×10^5 cells were plated in six-well plates and transfected with 100 nM of control non-specific miRNA (Thermo Fischer), a modified microRNA, or exogenous native microRNA after 24 hours using Oligofectamine (Thermo Fischer) following the manufacturer's protocols. For reagent free transfection, cells were plated in 6 well plates at (1×10^5) cells per well. Twenty-four hours later 100 pmol miRNA (Control, miR-15a, Mimic-1) were diluted in Optimem (Thermo Fischer) and added to the plate. Media was changed after 24 hours. Media was supplemented with 10% fetal bovine serum (Thermo Fischer). Briefly, cells were cultured in growth media (DMEM/F12 supplemented with B27, 10 ng/mL bFGF, and 20 ng/mL EGF (Life Technologies) in ultra-low attachment flasks) for up to 6 days. The spheroid cells were maintained by collection through gentle centrifugation, dissociation to single cells and replating.
Furthermore, to test whether or not the modified microRNAs of the present disclosure can be delivered directly to cells and taken up by the cancer cells without the use of transfer agents or vehicles (i.e., oligofectamine), MDA-MB-231 triple negative breast cancer cells were transfected with miR-NC (negative control), exogenous unmodified miR-200b or miR-489, 5-FU-miR-200b or modified miR-489 by using oligofectamine or without delivery vehicle. As shown in FIGS. 17A-17B and 20A, the effects of expression of the exemplary modified miRs tested on breast cancer cell proliferation were monitored by MTT assay for 6 days upon transfection or incubation.

[3] = target: T1, TS-FdUMP (Homo sapiens, UniProt P04818); assay: Western blot of TS / TS-FdUMP in MDA-MB-231 cells; format: cell-based; settings: breast cancer cells, FIG. 21B
T1 construct: endogenous in cells
T1 sequence (P04818 2-313 limits assumed): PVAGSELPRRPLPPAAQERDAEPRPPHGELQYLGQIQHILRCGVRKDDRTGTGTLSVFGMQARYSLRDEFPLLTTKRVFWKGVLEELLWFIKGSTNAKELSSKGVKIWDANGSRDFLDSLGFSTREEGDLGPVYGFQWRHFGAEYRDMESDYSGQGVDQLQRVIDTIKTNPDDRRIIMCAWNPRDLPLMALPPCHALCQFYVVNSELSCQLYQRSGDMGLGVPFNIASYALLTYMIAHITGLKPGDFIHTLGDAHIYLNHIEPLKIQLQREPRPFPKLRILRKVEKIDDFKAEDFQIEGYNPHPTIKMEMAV
Procedure: (§1) Western immunoblot analysis: Forty-eight hours after transfection, equal amounts of protein (15 μg) extracted from cells lysed in RIPA buffer with protease inhibitor (Sigma) and were separated on 10%-12% sodium dodecyl sulfate-polyacrylamide gels using standard procedures. The primary antibodies used for the analysis were rabbit anti-YAP1 monoclonal antibody (1:10000) (Cell Signaling Technologies), anti-DLCK1 (1:500) (Abcam), anti-BCL2 (1:500) (NeoMarkers), anti-MDC1 (1:500), anti-SUZ12 (1:500), anti-pChk-1 (1:500), anti beta-actin (1:500), anti-BMI-1 (1:10000) (Cell Signaling Technologies), mouse anti-human TS antibody (1:500), anti-α-tubulin (1:50000) (Santa Cruz Biotech Inc.), anti-GAPDH (1:100000) (Santa Cruz Biotech Inc.), anti-E2F3 (1:500) (Santa Cruz Biotech Inc.), Horseradish peroxidase-conjugated antibodies against mouse or rabbit (1:5000, Santa Cruz Biotech Inc.) were used as the secondary antibodies. Protein bands were visualized with autoradiography film using SuperSignal West Pico Chemiluminescent Substrate (Thermo Fischer). Western blot density was quantified using Image J software.

[4] = test system: MDC1 and SUZ12; assay: Western blot of MDC1 and SUZ12 in triple negative breast cancer cells; format: cell-based, human
Procedure: as §1

[5] = test system: MDA-MB-231 breast cancer cells; assay: Triple negative breast cancer xenograft mouse model (MDA-MB-231, tail vein); format: in vivo; settings: intravenous, every other day for 17 days, vs negative control and native miR-489
Procedure: Modified miR-489 inhibits breast cancer development and progression in vivo. A triple negative breast cancer xenograft mouse model was developed by tail vein injection of MDA-MB-231 breast cancer cells and tumors were developed over time. Mice were then injected with modified miR-489 composition having the nucleotide sequence set forth in SEQ ID NO: 32, exogenous native miR-489, or negative control miRNA by intravenous injection with treatment frequency of one injection every other day for 17 days and mice were euthanized and tumors size was measured using imaging techniques.

Substance: CGACGGCAU^FAU^FACACU^FACAGU^FG (CGACGGCAUAUACACUACAGUG; 5-fluorouracil replacing uracils, chemistry not fully specified) [modified miR-489]
- sub G1 and G1/S ratio [1]: significantly increase
- cell proliferation without delivery vehicle (no oligofectamine) ([2]; MDA-MB-231, MTT assay): effectively reduced cell proliferation
- cell proliferation in the presence of oligofectamine ([2]; MDA-MB-231, MTT assay for 6 days, vs miR-NC): dramatically reduced the cell growth from day 3
- expression of TS protein [3]: reduces the expression, and thus activity of TS protein
- MDC1 and SUZ12 protein expression without a transfection reagent ([4]; MDA-MB-231, no oligofectamine): inhibits MDC1 and SUZ12 protein expression
- MDC1 and SUZ12 protein expression ([4]; triple negative breast cancer cells, western blot): further reduction of SUZ12 and MDC1
- tumor size [5]: drastic reduction in tumor size
